Assay results taken from patent publication US10729636B2, “Compositions comprising peptide [sequence]” (NURITAS LIMITED, priority 2016, dated 2020).

Key:
KK.Cg-Ay/J (KKAY mouse) = test: Blood glucose management in a mouse model of obesity and diabetes; type: in vivo; conditions: KKAY mice; 100 μM/kg subcutaneous injection; after 7 days of treatment
Protocol: (§1) • Species—KK.Cg-Ay/J (KKAY mouse) • Source—Jackson Laboratories • Age—12 weeks of age • Gender—Male • Randomization—Based on baseline fasting glucose Housing and Feeding: • Acclimation—Not less than five days • Housing • Mice will be housed on a 12 hr light/dark cycle • No more than 4 mice per cage depending on size • Ventilated cage rack system • Diet—Standard rodent chow and water ad libitum Design: • Route of administration:—Subcutaneous injection • Dose Volume(s)—10 mL/kg • Dose Levels—Test articles: 100 μM/kg, Metformin: 250 mg/kg • Number per group—10 • Total number of animals—30

[1] = test system: Human Dermal Fibroblasts (HDF); test: Collagen production assay (hydroxyproline ELISA); type: cell-based; conditions: 5, 1 or 0.1 μg/ml, 96 h, compared with untreated control, FIG. 3
Protocol: Study Description Hydroxyproline in tissue preparations is a direct measure of the amount of collagen present. […] Human Hydroxyproline ELISA kit assay is designed to measure hydroxyproline in tissue or peptide compositions.
Human Dermal Fibroblasts (HDF Sigma 10605a) were seeded in 24 well plates at 50,000 cells per well in DMEM containing 10% fetal calf serum (FCS), 1% Pen/strep, 1% L-glutamine and allowed to adhere for 24 h.
(§2) Following the initial 24 h incubation the cells were incubated with 5 μg/ml, 1 μg/ml or 0.1 μg/ml synthetic peptide for 96 h respectively.
After treatment, the cell supernatant was removed and centrifuged. 50 μl of each supernatant was assayed using the […] Human Hydroxyproline ELISA kit. All steps were carried out according to the manufacturer's instructions.

HACAT cells = test: Cell proliferation assay (BrDu), HACAT; type: cell-based; conditions: compared with untreated control, FIG. 2
Protocol: BrDu is incorporated into newly synthesised DNA strands of actively proliferating cells. Following partial denaturation of double stranded DNA, BrDu is detected immunochemically allowing the assessment of the population of cells which are synthesizing DNA.
Following the initial 24 h incubation the cells were incubated with 5 μg/ml, 0.5 μg/ml or 0.05 μg/ml synthetic peptide for 24 h respectively.
After 18 h incubation with synthetic peptides 20 μl BrDu reagent was added to each well. At 24 h incubation the cells were fixed and the amount of […] was measured using the BrdU Cell Proliferation Assay, all steps were carried out according to the manufacturer's instructions.
This experiment was then repeated using HACAT cells.

[2] = test system: Human Dermal Fibroblasts (HDF); test: Elastin production assay (ELISA); type: cell-based; conditions: 5, 1 or 0.1 μg/ml, 96 h, compared with untreated control, FIG. 4
Protocol: Elastin is a highly elastic protein in connective tissue and allows many tissues in the body to resume their shape after stretching or contracting. […] Human Elastin ELISA kit assay is designed to measure Elastin in tissue or protein/peptide compositions.
Human Dermal Fibroblasts (HDF) were seeded in 24 well plates at 50,000 cells per well in DMEM containing 10% fetal calf serum (FCS), 1% Pen/strep, 1% L-glutamine and allowed to adhere for 24 h.
as §2
After treatment, the cells were lysed using cell lysis buffer and sonicated for 10 seconds. The lysed cells were centrifuged and the supernatant was removed from each sample. Total protein concentration was determined using a BCA assay. Each sample was diluted in assay buffer to contain 10 μg total protein. 50 μl of each sample was then assayed using the […] Human Elastin ELISA kit. All steps were carried out according to the manufacturer's instructions.

protein synthesis = test: Puromycin ELISA (protein synthesis); type: cell-based; conditions: FIG. 10
Text: Puromycin is an aminonucleoside antibiotic produced by the bacterium Streptomyces alboniger. It is a structural analogue of aminoacyl-transfer RNA and, as such, can be incorporated into elongating peptide chains via the formation of a peptide bond. However, whereas aminoacyl-tRNAs contain a hydrolyzable ester bond, puromycin hasn't it in the equivalent position. Thus, the binding of puromycin to a growing peptide chain prevents a new peptide bond from being formed with the next aminoacyl-tRNA. As a consequence, puromycin binding results in the termination of peptide elongation, and leads to the release of the truncated puromycin bound peptide from the ribosome. […] This later property makes puromycin a potential tool for the measurement of changes in protein synthesis rates.
1. Dispense […] Coating Buffer per well in the required number of wells in a 96 well ELISA plate. Dilute and mix the Protein extract (in the same buffer the sample is in) to […]. Immediately dispense 1 μl/well into plate.
2. Incubate the plate at 4° C. for 16-24 h.
3. Vigorously shake out contents. Wash 1× with 200 ul PBS.
4. Add 200 μl Blocking Solution (5% BSA in PBS). Incubate over the day 4-6 h at RT.
5. Dilute Puromycin antibody in Blocking solution and incubate overnight at 4° C.
8. Wash 2× with 200 ul PBS
9. […]
12. Add Stop solution and read the plate at 450 nm.

[3] = test system: mTOR phosphorylated at Ser2448; test: Muscle protein synthesis (Phospho-mTOR assay); type: cell-based; conditions: HSkMC cells, 2 hours, FIG. 9
Protocol: Phospho-mTOR sandwich ELISA detects endogenous levels of phosphorylated mTOR at Ser2448.
Day 1: Seed HSkMC cells in 500 uL/well of HSkMC Growth Medium and let them adhere to the wells for 16-24 h.
Day 2: Remove growth medium and add 500 uL/well of HSkMC Differentiation Medium to let them differentiate for 5-7 days.
Day 7: Treat cells for 2 hours. Collect cell lysates in lysis buffer.
Day 8: Perform BCA (protein determination) and run the assay. In a first incubation step, a mTOR antibody coated onto the ELISA microwells is used to capture mTOR (phospho and non-phospho) from the cell lysates. Then, following extensive washing, a specific phospho-mTOR detection antibody is added to detect only the phospho-mTOR protein captured before. Finally, a HRP-linked antibody is used to recognise the detection antibody and through the addition of TMB (HRP substrate) develop color proportionally to the quantity of mTOR phosphorylated at Ser2448.

Body weight of KKAY mice = type: in vivo, mouse; conditions: 100 μM/kg subcutaneous injection, 13 days of treatment
Protocol: as §1

## WKDEAGKPLVK [SEQ ID NO. 1]
KK.Cg-Ay/J (KKAY mouse)
  blood glucose: significantly reduced
[1]
  collagen production: increase
HACAT cells
  cell proliferation: increase
[2]
  elastin production: increase
Protein synthesis
  protein synthesis: increase
[3]; 0.5 μg/ml
  mTOR: increase
[3]; 5 μg/ml
  mTOR: increase
Body weight of KKAY mice
  body weight relative to the untreated group: reduced body weight
  increase in body weight: did not cause an increase
